This test has as its target T1, Lysosomal phospholipase A and acyltransferase (Homo sapiens, UniProt Q8NCC3).
T1 sequence (Q8NCC3 whole entry): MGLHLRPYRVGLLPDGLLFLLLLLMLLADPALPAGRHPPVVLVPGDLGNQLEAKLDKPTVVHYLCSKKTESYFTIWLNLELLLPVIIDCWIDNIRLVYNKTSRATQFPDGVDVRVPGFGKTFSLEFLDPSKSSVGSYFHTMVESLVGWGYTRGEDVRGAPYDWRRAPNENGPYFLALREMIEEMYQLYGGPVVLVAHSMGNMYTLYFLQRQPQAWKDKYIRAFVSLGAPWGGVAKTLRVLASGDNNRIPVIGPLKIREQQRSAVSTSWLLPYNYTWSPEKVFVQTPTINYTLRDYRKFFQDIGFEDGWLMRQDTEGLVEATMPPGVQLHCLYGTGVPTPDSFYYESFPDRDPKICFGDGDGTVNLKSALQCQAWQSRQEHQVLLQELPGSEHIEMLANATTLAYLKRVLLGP
The test can be described thus: Inhibitory activity against phospholipase A2 enzyme.

For 1 compound, IC50 results are on record in ChEMBL document CHEMBL1130363, “Design and synthesis of hapten to induce phospholipase A2-like catalytic antibody” (Bioorg Med Chem Lett, 1997).

For orientation: IC50 means the concentration that gives 50% inhibition. Read a low IC50 as inhibition by little substance. Turning to `CCCCCCCCCCP(=O)(O)OC(COCCCCCCCCCC(=O)OC)COP(=O)([O-])OCC[N+](C)(C)C` (stereo unspecified) [ESTER OF PHOSPHOLIPID], the half-maximal inhibitory concentration (IC50) worked out at 9.75 mM.
